Assay results as given in patent US10729768B2, “Combination of anti-CD20 antibody and PI3 kinase selective inhibitor” (TG Therapeutics, Inc., priority 2012, dated 2020).

Key:
Format in all cases: cell-based
[1] = system: U266B1, DB, Raji, and Daudi cells; assay: cell cycle assay, flow cytometry, cell-lines tested; settings: 72 hrs
Procedure: (§1) A cell cycle assay reagent (Millipore) was used to determine the effect of S-isomer of a compound of formula A, UBX, and combinations thereof on the cell cycle in cancerous cells. In these experiments, cells were plated in a 6-well plate at a concentration of 0.5×10^6 cells/ml, treated with either S-isomer of a compound of formula A (10 μM to 0.1 μM), UBX (100 μg/ml to 0.1 μg/ml), or UBX with S-isomer of a compound of formula A at 1000 nM, and incubated for 72 hrs at 37° C. and 5% CO2. The cells were transferred to microfuge tubes to receive 50 μl of cell cycle reagent and incubated for 30 minutes at RT away from light. Cells were then diluted with 300-400 μl PBS, and a minimum of 10,000 events were acquired on a Guava® easyCyte™ flow cytometer. The data was analyzed with Express Pro software and the percentage of the cell population in different cell cycle stages with respect to control was presented in histograms.

DB Cells = assay: cell cycle assay, flow cytometry; settings: DB cells
Procedure: as §1, with “In these experiments, cells were plated in a 6-well plate at a concentration of 0.5×10^6 cells/ml, treated with either S-isomer of a compound of formula A (10 μM to 0.1 μM), UBX (100 μg/ml to 0.1 μg/ml), or UBX with S-isomer of a compound of formula A at 1000 nM, and incubated for 72 hrs at 37° C. and 5% CO2.” left out

U266B1 cells = assay: cell cycle assay, flow cytometry
Procedure: as §1, with “In these experiments, cells were plated in a 6-well plate at a concentration of 0.5×10^6 cells/ml, treated with either S-isomer of a compound of formula A (10 μM to 0.1 μM), UBX (100 μg/ml to 0.1 μg/ml), or UBX with S-isomer of a compound of formula A at 1000 nM, and incubated for 72 hrs at 37° C. and 5% CO2.” left out

Raji Cells = assay: cell cycle assay, flow cytometry
Procedure: as §1, with “In these experiments, cells were plated in a 6-well plate at a concentration of 0.5×10^6 cells/ml, treated with either S-isomer of a compound of formula A (10 μM to 0.1 μM), UBX (100 μg/ml to 0.1 μg/ml), or UBX with S-isomer of a compound of formula A at 1000 nM, and incubated for 72 hrs at 37° C. and 5% CO2.” left out

Daudi cells = assay: cell cycle assay, flow cytometry
Procedure: as §1, with “In these experiments, cells were plated in a 6-well plate at a concentration of 0.5×10^6 cells/ml, treated with either S-isomer of a compound of formula A (10 μM to 0.1 μM), UBX (100 μg/ml to 0.1 μg/ml), or UBX with S-isomer of a compound of formula A at 1000 nM, and incubated for 72 hrs at 37° C. and 5% CO2.” left out

B-cells = assay: cytotoxicity to B-cells; settings: concentrations up to 10 μM
CD20+ cells = assay: LPS-induced proliferation in HWB, flow cytometry, CD20; settings: Homo sapiens, 72 hrs
Procedure: In these experiments, 250 μl of diluted (1:3.5 with RPMI-HG Media) HWB sample was treated with either S-isomer of a compound of formula A (10 μM to 0.1 μM), UBX (100 μg/ml to 0.1 μg/ml) or UBX with S-isomer of a compound of formula A at 1000 nM for 15 minutes followed by 20 μg/ml LPS induction and incubated for 72 hrs at 37° C. and 5% CO2. 20 μl of treated sample was taken in a 1.5 ml centrifuge tube and labeled with CD20 FITC and CD19 PE antibody and incubated in the dark for 1 hour at RT. 1 ml of RBC lysing solution was added and tubes were centrifuged at 3000 rpm for 10 minutes. Supernatant was aspirated, and 250 μl of PBS was added to the pellet. Tubes were vortexed, and 5000 events were acquired on a Guava® easyCyte™ flow cytometer and analyzed with Incyte Software.
Gated population of lymphocytes positive cells were further analyzed for CD19 and CD20. Cells positive for CD19 and/or CD20 were calculated, and data were expressed as the percentage positive cells in the population. The loss of positive population from control with LPS induction was calculated and expressed as % inhibition with respect to control.

CC(C)Oc1ccc(-c2nn([C@@H](C)c3oc4ccc(F)cc4c(=O)c3-c3cccc(F)c3)c3ncnc(N)c23)cc1F [S-isomer, (S)-2-(1-(4-amino-3-(3-fluoro-4-isopropoxyphenyl)-1H-pyrazolo[3,4-d]pyrimidin-1-yl)ethyl)-6-fluoro-3-(3-fluorophenyl)-4H-chromen-4-one]
cell cycle effect [1]: dose-dependent G2/M arrest
G0/G1, percentage of the cell population (DB Cells; 72 h, 0.1 nM): 54.37
G2/M, percentage of the cell population (DB Cells; 72 h, 0.1 nM): 39.41
S, percentage of the cell population (DB Cells; 72 h, 0.1 nM): 4.84
Sub G0, percentage of the cell population (DB Cells; 72 h, 0.1 nM): 0.84
G0/G1, percentage of the cell population (DB Cells; 72 h, 1 nM): 50.61
G2/M, percentage of the cell population (DB Cells; 72 h, 1 nM): 41.44
S, percentage of the cell population (DB Cells; 72 h, 1 nM): 6.53
Sub G0, percentage of the cell population (DB Cells; 72 h, 1 nM): 0.54
G0/G1, percentage of the cell population (DB Cells; 72 h, 10 nM): 47.22
G2/M, percentage of the cell population (DB Cells; 72 h, 10 nM): 46.85
S, percentage of the cell population (DB Cells; 72 h, 10 nM): 4.98
Sub G0, percentage of the cell population (DB Cells; 72 h, 10 nM): 0.55
G0/G1, percentage of the cell population (DB Cells; 72 h, 100 nM): 41.21
G2/M, percentage of the cell population (DB Cells; 72 h, 100 nM): 50.22
S, percentage of the cell population (DB Cells; 72 h, 100 nM): 6.96
Sub G0, percentage of the cell population (DB Cells; 72 h, 100 nM): 0.43
G0/G1, percentage of the cell population (DB Cells; 72 h, 1000 nM): 0.75
G2/M, percentage of the cell population (DB Cells; 72 h, 1000 nM): 92.79
S, percentage of the cell population (DB Cells; 72 h, 1000 nM): 0.42
Sub G0, percentage of the cell population (DB Cells; 72 h, 1000 nM): 5.36
G0/G1, percentage of the cell population (DB Cells; 72 h, 10,000 nM): 1.40
G2/M, percentage of the cell population (DB Cells; 72 h, 10,000 nM): 94.87
S, percentage of the cell population (DB Cells; 72 h, 10,000 nM): 0.89
Sub G0, percentage of the cell population (DB Cells; 72 h, 10,000 nM): 2.06
G0/G1, percentage of the cell population (U266B1 cells; 72 h, 0.1 nM): 59.26
G2/M, percentage of the cell population (U266B1 cells; 72 h, 0.1 nM): 30.71
S, percentage of the cell population (U266B1 cells; 72 h, 0.1 nM): 6.55
Sub G0, percentage of the cell population (U266B1 cells; 72 h, 0.1 nM): 2.75
G0/G1, percentage of the cell population (U266B1 cells; 72 h, 1 nM): 57.73
G2/M, percentage of the cell population (U266B1 cells; 72 h, 1 nM): 36.19
S, percentage of the cell population (U266B1 cells; 72 h, 1 nM): 4.87
Sub G0, percentage of the cell population (U266B1 cells; 72 h, 1 nM): 0.94
G0/G1, percentage of the cell population (U266B1 cells; 72 h, 10 nM): 55.33
G2/M, percentage of the cell population (U266B1 cells; 72 h, 10 nM): 39.28
S, percentage of the cell population (U266B1 cells; 72 h, 10 nM): 5.38
Sub G0, percentage of the cell population (U266B1 cells; 72 h, 10 nM): 0.76
G0/G1, percentage of the cell population (U266B1 cells; 72 h, 100 nM): 48.69
G2/M, percentage of the cell population (U266B1 cells; 72 h, 100 nM): 45.76
S, percentage of the cell population (U266B1 cells; 72 h, 100 nM): 5.49
Sub G0, percentage of the cell population (U266B1 cells; 72 h, 100 nM): 0.75
G0/G1, percentage of the cell population (U266B1 cells; 72 h, 1000 nM): 47.80
G2/M, percentage of the cell population (U266B1 cells; 72 h, 1000 nM): 47.13
S, percentage of the cell population (U266B1 cells; 72 h, 1000 nM): 4.69
Sub G0, percentage of the cell population (U266B1 cells; 72 h, 1000 nM): 0.88
G0/G1, percentage of the cell population (U266B1 cells; 72 h, 10,000 nM): 2.00
G2/M, percentage of the cell population (U266B1 cells; 72 h, 10,000 nM): 64.31
S, percentage of the cell population (U266B1 cells; 72 h, 10,000 nM): 0.94
Sub G0, percentage of the cell population (U266B1 cells; 72 h, 10,000 nM): 28.88
G0/G1, percentage of the cell population (Raji Cells; 72 h, 0.1 nM): 56.54
G2/M, percentage of the cell population (Raji Cells; 72 h, 0.1 nM): 33.63
S, percentage of the cell population (Raji Cells; 72 h, 0.1 nM): 8.38
Sub G0, percentage of the cell population (Raji Cells; 72 h, 0.1 nM): 1.32
G0/G1, percentage of the cell population (Raji Cells; 72 h, 1 nM): 56.93
G2/M, percentage of the cell population (Raji Cells; 72 h, 1 nM): 34.13
S, percentage of the cell population (Raji Cells; 72 h, 1 nM): 5.51
Sub G0, percentage of the cell population (Raji Cells; 72 h, 1 nM): 1.89
G0/G1, percentage of the cell population (Raji Cells; 72 h, 10 nM): 55.96
G2/M, percentage of the cell population (Raji Cells; 72 h, 10 nM): 34.81
S, percentage of the cell population (Raji Cells; 72 h, 10 nM): 5.80
Sub G0, percentage of the cell population (Raji Cells; 72 h, 10 nM): 1.06
G0/G1, percentage of the cell population (Raji Cells; 72 h, 100 nM): 52.81
G2/M, percentage of the cell population (Raji Cells; 72 h, 100 nM): 37.80
S, percentage of the cell population (Raji Cells; 72 h, 100 nM): 6.72
Sub G0, percentage of the cell population (Raji Cells; 72 h, 100 nM): 1.04
G0/G1, percentage of the cell population (Raji Cells; 72 h, 1000 nM): 52.04
G2/M, percentage of the cell population (Raji Cells; 72 h, 1000 nM): 41.21
S, percentage of the cell population (Raji Cells; 72 h, 1000 nM): 3.92
Sub G0, percentage of the cell population (Raji Cells; 72 h, 1000 nM): 1.29
G0/G1, percentage of the cell population (Raji Cells; 72 h, 10,000 nM): 10.12
G2/M, percentage of the cell population (Raji Cells; 72 h, 10,000 nM): 58.09
S, percentage of the cell population (Raji Cells; 72 h, 10,000 nM): 23.17
Sub G0, percentage of the cell population (Raji Cells; 72 h, 10,000 nM): 4.90
G0/G1, percentage of the cell population (Daudi cells; 72 h, 0.1 nM): 49.56
G2/M, percentage of the cell population (Daudi cells; 72 h, 0.1 nM): 33.23
S, percentage of the cell population (Daudi cells; 72 h, 0.1 nM): 14.13
Sub G0, percentage of the cell population (Daudi cells; 72 h, 0.1 nM): 0.34
G0/G1, percentage of the cell population (Daudi cells; 72 h, 1 nM): 48.11
G2/M, percentage of the cell population (Daudi cells; 72 h, 1 nM): 36.75
S, percentage of the cell population (Daudi cells; 72 h, 1 nM): 13.27
Sub G0, percentage of the cell population (Daudi cells; 72 h, 1 nM): 0.74
G0/G1, percentage of the cell population (Daudi cells; 72 h, 10 nM): 46.84
G2/M, percentage of the cell population (Daudi cells; 72 h, 10 nM): 37.79
S, percentage of the cell population (Daudi cells; 72 h, 10 nM): 12.55
Sub G0, percentage of the cell population (Daudi cells; 72 h, 10 nM): 1.68
G0/G1, percentage of the cell population (Daudi cells; 72 h, 100 nM): 47.39
G2/M, percentage of the cell population (Daudi cells; 72 h, 100 nM): 38.05
S, percentage of the cell population (Daudi cells; 72 h, 100 nM): 11.33
Sub G0, percentage of the cell population (Daudi cells; 72 h, 100 nM): 1.30
G0/G1, percentage of the cell population (Daudi cells; 72 h, 1000 nM): 48.27
G2/M, percentage of the cell population (Daudi cells; 72 h, 1000 nM): 40.10
S, percentage of the cell population (Daudi cells; 72 h, 1000 nM): 7.91
Sub G0, percentage of the cell population (Daudi cells; 72 h, 1000 nM): 2.22
G0/G1, percentage of the cell population (Daudi cells; 72 h, 10,000 nM): 2.53
G2/M, percentage of the cell population (Daudi cells; 72 h, 10,000 nM): 65.03
S, percentage of the cell population (Daudi cells; 72 h, 10,000 nM): 21.92
Sub G0, percentage of the cell population (Daudi cells; 72 h, 10,000 nM): 5.01
cytotoxic to B-cells (B-cells): not cytotoxic
inhibition at 1 µM (CD20+ cells): ~40%
